Measured values published in US9266834B2, “1, 4-disubstituted 3-cyano-pyridone derivatives and their use as positive allosteric modulators of MGLUR2-receptors” (JANSSEN PHARMACEUTICALS, INC., priority 2006, dated 2016).

Key:
[1] = target: T1, human mGluR2 receptor (Homo sapiens, UniProt Q14416); experiment: [35S]GTPγS binding assay (GTPγS-PAM): positive allosteric modulation in presence of glutamate at EC25, membranes from transfected CHO cells; assay type: biochemical; details: in presence of mGluR2 agonist glutamate at predetermined EC25 concentration, averages of duplicate values of 11-concentration response curves, read-out: GTPgS - hR2 PAM pEC50 (converted)
T1 construct: expressed in transfected cells; host or cells: CHO cells (membrane preparation)
T1 sequence (Q14416 19-872): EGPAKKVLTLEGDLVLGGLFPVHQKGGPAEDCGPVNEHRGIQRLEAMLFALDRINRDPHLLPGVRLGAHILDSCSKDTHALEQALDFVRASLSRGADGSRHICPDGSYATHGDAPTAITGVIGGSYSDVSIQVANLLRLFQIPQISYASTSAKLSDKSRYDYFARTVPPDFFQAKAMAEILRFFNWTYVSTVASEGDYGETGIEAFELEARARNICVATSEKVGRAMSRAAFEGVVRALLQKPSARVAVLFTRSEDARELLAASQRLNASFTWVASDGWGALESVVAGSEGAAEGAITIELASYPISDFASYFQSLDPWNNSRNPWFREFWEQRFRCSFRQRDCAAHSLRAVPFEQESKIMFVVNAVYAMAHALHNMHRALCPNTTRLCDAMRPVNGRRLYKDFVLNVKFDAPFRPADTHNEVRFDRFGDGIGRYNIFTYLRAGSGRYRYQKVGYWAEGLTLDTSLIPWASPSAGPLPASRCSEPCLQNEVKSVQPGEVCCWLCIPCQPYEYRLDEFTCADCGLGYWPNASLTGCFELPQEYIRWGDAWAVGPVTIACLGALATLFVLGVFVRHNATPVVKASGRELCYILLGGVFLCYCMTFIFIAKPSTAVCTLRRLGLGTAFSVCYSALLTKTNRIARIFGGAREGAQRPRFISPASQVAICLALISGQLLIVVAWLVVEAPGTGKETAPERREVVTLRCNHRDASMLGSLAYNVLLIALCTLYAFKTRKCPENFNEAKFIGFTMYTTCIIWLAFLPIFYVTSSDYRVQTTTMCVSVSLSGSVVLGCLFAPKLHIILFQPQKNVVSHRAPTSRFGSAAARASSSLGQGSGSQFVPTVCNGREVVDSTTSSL
Outline: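 Membranes came from butyrate-stimulated CHO cells expressing human mGluR2, used at 15 μg/well in HEPES pH 7.4 with 100 mM NaCl, 3 mM MgCl2, 50 μM GDP and saponin. Compound (0.3 nM-50 μM, 11 concentrations) plus glutamate at EC25 was preincubated 30 min at 30° C., then 0.1 nM [35S]GTPγS was added for 30 min. Filter-bound radioactivity was counted, nonspecific binding was taken with 10 μM GTP, and curves were fitted by four-parameter logistic.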

SMILES	EC50 [1] [nM]	melting point [°C]
N#Cc1c(N2CCN(Cc3ccc(F)cc3)CC2)ccn(Cc2ccc(OC(F)(F)F)cc2)c1=O [2-044]	1580	156
N#Cc1c(N2CCN(CC(=O)c3ccccc3)CC2)ccn(Cc2ccc(OC(F)(F)F)cc2)c1=O [2-046]	3160	92
N#Cc1c(N2CCN(c3ncccc3C(F)(F)F)CC2)ccn(Cc2ccc(OC(F)(F)F)cc2)c1=O [2-048]	79.4	258
N#Cc1c(N2CCN(Cc3ccc(F)c(F)c3)CC2)ccn(Cc2ccc(F)cc2)c1=O [2-051]	3160	239
CC(C)CCn1ccc(NC2CCN(c3ccc(C(F)(F)F)cn3)CC2)c(C#N)c1=O [3-004]	251	188
CC(C)CCn1ccc(N(C)C2CCN(Cc3cccc(C(F)(F)F)c3)CC2)c(C#N)c1=O [3-006]	2510	131
CC(C)CCn1ccc(OC2CCN(Cc3ccccc3)CC2)c(C#N)c1=O [3-007]	6310	208
CC(C)CCn1ccc(OCC2CCN(Cc3cccc(C(F)(F)F)c3)CC2)c(C#N)c1=O [3-009]	158	117
N#Cc1c(NC2CCN(Cc3ccc(OC(F)(F)F)c(Cl)c3)CC2)ccn(CC2CC2)c1=O [3-010]	1580	187
CN(c1ccn(Cc2ccc(OC(F)(F)F)cc2)c(=O)c1C#N)C1CCN(Cc2ccccc2)CC1 [3-013]	3980	211
CCCCn1ccc(N2CCC(c3ccnc(C)c3)CC2)c(C#N)c1=O [4-003]	3980	132
CCCCn1ccc(N2CCC(Oc3cccnc3)CC2)c(C#N)c1=O [4-004]	3160	188
CC(C)CCn1ccc(N2CCC(C(=O)c3ccccc3)CC2)c(C#N)c1=O [4-012]	398	296
CC(C)CCn1ccc(N2CCC(c3cccc(C(F)(F)F)c3)CC2)c(C#N)c1=O [4-016]	50.1	112
CC(C)CCn1ccc(N2CCC(CCOc3ccc(F)cc3)CC2)c(C#N)c1=O [4-019]	79.4	100
CC(C)CCn1ccc(N2CCC(N(C)Cc3ccc(F)cc3)CC2)c(C#N)c1=O [4-027]	1260	113
CC(C)CCn1ccc(N2CCC(N(C)Cc3ccc(C(F)(F)F)cc3)CC2)c(C#N)c1=O [4-029]	126	91
CC(C)CCn1ccc(N2CCC(N(C)c3cccc(C(F)(F)F)c3)CC2)c(C#N)c1=O [4-031]	63.1	141
CC(C)CCn1ccc(N2CCC(N3CCc4ccccc4C3)CC2)c(C#N)c1=O [4-034]	3160	253
CC(C)CCn1ccc(N2CCC(n3ccc4cc(F)ccc43)CC2)c(C#N)c1=O [4-037]	126	78
CC(C)CCn1ccc(N2CCC(c3nc4ccccc4o3)CC2)c(C#N)c1=O [4-038]	398	214
CC(C)CCn1ccc(N2CCC(c3coc4cc(F)ccc34)CC2)c(C#N)c1=O [4-039]	39.8	123
CC(C)CCn1ccc(N2CCC(c3noc(CC(C)(C)C)n3)CC2)c(C#N)c1=O [4-040]	398	113
CC(C)CCn1ccc(N2CCC(Nc3ccccc3)C(C)C2)c(C#N)c1=O (stereo not shown) [4-043]	501	138
CN(Cc1ccccc1)C1CCN(c2ccn(Cc3ccc(OC(F)(F)F)cc3)c(=O)c2C#N)CC1 [4-049]	200	138
CN(Cc1cccc(F)c1)C1CCN(c2ccn(Cc3ccc(F)cc3)c(=O)c2C#N)CC1 [4-057]	1000	242
